Reference: patent US8992783B2, “Process for enantioseparation of chiral systems with compound formation using two subsequent crystallization steps” (Max-Planck-Gessellschaft zur Förderung der Wissenschaften …, priority 2008, dated 2015)
Read-outs that look alike come from different tables or passages of the source.

Details: methionine enantiomers in water

CSCC[C@H](N)C(=O)O (racemic) [methionine]
Solubility at eutectic composition (274.15 K): ′ 3.83 wt %
Solubility at eutectic composition (333.15 K): ′ 9.38 wt %
